Values quoted from earlier work as cited in patent US9968093B1, “Development and manufacturing process of powdered additive for its use in coatings or substrates to repel, reduce and control insects” (priority 2016, dated 2018).
“Also recorded” adds a separate entry of the source. Where two headings read alike, the source gives them in different places.

How the values were obtained:
[1] = for Time to decompose (Mean life): aqueous medium; for Stability in aqueous medium, in words: pH as stated in the value
[2] = for Toxicity: toxicity in words

CCN(CC)c1nc(C)cc(OP(=S)(OC)OC)n1 [Methyl pirimiphos]
Time to decompose (Mean life) ([1]; pH 5): 7 days
Time to decompose (Mean life) ([1]; pH 8): 5 days

CCOP(=S)(OCC)Oc1nc(Cl)c(Cl)cc1Cl [Chlorpyrifos]
Time to decompose (Mean life) ([1]; pH 10): 7 days
Stability in aqueous medium, in words [1]: stable in neutral and lightly

CCOP(=S)(OCC)Oc1ccc2c(C)c(Cl)c(=O)oc2c1 [Coumaphos]
Toxicity [2]: Toxic

CC1(C)[C@H](C(=O)O[C@H](C#N)c2cccc(Oc3ccccc3)c2)[C@@H]1C=C(Br)Br [Deltamethrin]
Time to decompose (Mean life) ([1]; pH 7): 0.33 days
Stability in aqueous medium, in words [1]: more stable in medium acid solutions

O=C(NC(=O)c1c(F)cccc1F)Nc1ccc(Cl)cc1 [Diflubenzuron]
Stability in aqueous medium, in words [1]: Stable in pH between 5 and 7; also recorded: Hydrolyzed at pH 9

CNC(=O)Oc1cccc2c1OC(C)(C)C2 [Carbofuran]
Toxicity (group) [2]: Group II
Toxicity [2]: Mildly toxic

C=CCC1=C(C)C(OC(=O)C2C(C=C(C)C)C2(C)C)CC1=O [D-allethrin]
Time to decompose (Mean life) ([1]; pH 7): 500 days
Time to decompose (Mean life) ([1]; pH 9): (4.3 days)
Stability in aqueous medium, in words [1]: Stable at pH 5 after 31 days

CC1(C)C(C=C(Cl)Cl)C1C(=O)OC(C#N)c1cccc(Oc2ccccc2)c1 (stereo not shown) [Cypermethrin]
Time to decompose (Mean life) ([1]; pH 9): 7 days

OB(O)O [Boric acid]
Toxicity (group) [2]: Group II
Toxicity [2]: Mildly toxic

CC1(C)C(C=C(Cl)Cl)C1C(=O)OCc1cccc(Oc2ccccc2)c1 (stereo not shown) [Permethrin]
Stability in aqueous medium, in words [1]: Stable at pH between 5 and 6.

CC(COc1ccc(Oc2ccccc2)cc1)Oc1ccccn1 (stereo not shown) [Pyriproxyfen]
Stability in aqueous medium, in words [1]: Stable in a pH range between 4 and 9.

CCOP(=S)(OCC)Oc1cc(C)nc(C(C)C)n1 [Diazinon]
Time to decompose (Mean life) ([1]; pH 5): 31 days
Time to decompose (Mean life) ([1]; pH 7.5): 185 days
Time to decompose (Mean life) ([1]; pH 9): 136 days

CCOC(=O)CC(SP(=S)(OC)OC)C(=O)OCC (stereo not shown) [Malathion]
Stability in aqueous medium, in words [1]: Quickly hydrolyzed at pHs over 7. The optimal pH
